Measurements: patent US8809341B2, “2,4-pyrimidinediamine compounds and uses as anti-proliferative agents” (Rigel Pharmaceuticals, Inc., priority 2003, dated 2014)

Key:
A549 cells = experiment: in vitro antiproliferation assay, A549 (lung); type: cell-based; conditions: in vitro antiproliferation, A549 (lung) cells
Procedure, shortened: (§1)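 Standard in vitro antiproliferation assays on tumour cell lines, including A549 and H1299 (both lung); IC50 values determined.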

H1299 cells = experiment: in vitro antiproliferation assay, H1299 (lung); type: cell-based; conditions: in vitro antiproliferation, H1299 (lung) cells
Procedure, shortened: as §1

IC50 (A549 cells; Table 7) [µM] | IC50 (H1299 cells; Table 7) [µM] | IC50 (A549 cells) [µM] | IC50 (H1299 cells) [µM] | Structure (SMILES)
> 20 | > 20 | – | – | COC(=O)c1cc2cc(Nc3ncc(F)c(N(C)c4cc(C)c(Cl)c(C)c4)n3)ccc2o1 [compound 672]
> 20 | > 20 | – | – | CCOC(=O)c1cc2cccc(Nc3ncc(F)c(NC4CCC4)n3)c2[nH]1 [compound 678]
– | – | ≤ 20 | ≤ 20 | CNC(=O)COc1cccc(Nc2nc(Nc3ccc(OCCN(C)C)cc3)ncc2F)c1 [compound 694]
– | – | ≤ 20 | ≤ 20 | CNC(=O)COc1cccc(Nc2ncc(F)c(Nc3ccc(Cl)c(Cl)c3)n2)c1 [compound 697]
– | – | > 20 | > 20 | Fc1cnc(Nc2ccc(C(F)(F)F)cc2)nc1Nc1ccc(C(F)(F)F)cc1 [compound 701]
– | – | ≤ 20 | ≤ 20 | COc1ccc(Nc2ncc(F)c(Nc3ccc(OC)cc3)n2)cc1 [compound 702]
– | – | ≤ 20 | ≤ 20 | CCOc1ccc(Nc2ncc(F)c(Nc3ccc(OCC)cc3)n2)cc1 [compound 704]
– | – | ≤ 20 | ≤ 20 | CCOc1ccc(Nc2ncc(F)c(Nc3ccc(OC)c(OC)c3)n2)cc1 [compound 713]
– | – | > 20 | > 20 | CC(C)(C)c1ccc(Nc2ncc(F)c(Nc3ccc(C(C)(C)C)cc3)n2)cc1 [compound 718]
– | – | > 20 | > 20 | Fc1ccc(Nc2ncc(F)c(Nc3ccc(F)c(Cl)c3)n2)cc1Cl [compound 719]
– | – | ≤ 20 | > 20 | Fc1ccc(Nc2ncc(F)c(Nc3ccc(F)cc3)n2)cc1 [compound 720]
– | – | > 20 | > 20 | Cc1ccc(Nc2ncc(F)c(Nc3ccc(C)cc3)n2)cc1 [compound 721]
– | – | > 20 | ≤ 20 | COC(=O)COc1cccc(Nc2ncc(F)c(Nc3cccc(OCC(=O)OC)c3)n2)c1 [compound 724]
– | – | ≤ 20 | ≤ 20 | CNC(=O)COc1cc(Nc2ncc(F)c(Nc3ccc(C)c(OCC(=O)NC)c3)n2)ccc1C [compound 759]
– | – | ≤ 20 | ≤ 20 | COc1cc(Nc2nc(Nc3cccc(O)c3)ncc2F)cc(OC)c1 [compound 768]
– | – | > 20 | > 20 | CCOC(=O)COc1cccc(Nc2nc(Nc3cc(OC)cc(OC)c3)ncc2F)c1 [compound 769]
– | – | ≤ 20 | ≤ 20 | CCOc1ccc(Nc2nc(Nc3cccc(OCC(=O)NC)c3)ncc2F)cc1 [compound 772]

IC50 (A549 cells; Table 7) [µM] | IC50 (H1299 cells; Table 7) [µM] | IC50 (A549 cells) [µM] | IC50 (H1299 cells) [µM] | Structure (SMILES)
– | – | ≤ 20 | ≤ 20 | Oc1cccc(Nc2nc(Nc3ccc(OC(F)(F)F)c(Cl)c3)ncc2F)c1 [compound 781]
– | – | ≤ 20 | ≤ 20 | C=CCNC(=O)COc1cccc(Nc2nc(Nc3cccc(OCC(=O)NC)c3)ncc2F)c1 [compound 791]
– | – | ≤ 20 | > 20 | CNC(=O)COc1cc(O)cc(Nc2ncc(F)c(Nc3cccc(O)c3)n2)c1 [compound 797]
– | – | > 20 | > 20 | CNC(=O)COc1cc(Nc2ncc(F)c(Nc3cccc(O)c3)n2)cc(OCC(=O)NC)c1 [compound 798]
– | – | ≤ 20 | > 20 | COc1ccc(Nc2ncc(F)c(Nc3ccc(OC)c(Cl)c3)n2)cc1Cl [compound 800]
– | – | > 20 | > 20 | COc1ccc(Nc2nc(Nc3cc(C)c(OC)c(Cl)c3)ncc2F)cc1Cl [compound 802]
– | – | ≤ 20 | ≤ 20 | COc1cc(Nc2ncc(F)c(Nc3ccc(N4CCOCC4)c(Cl)c3)n2)cc(C(F)(F)F)c1 [compound 806]
– | – | ≤ 20 | ≤ 20 | COc1ccc(Nc2nc(Nc3cc(Cl)cc(Cl)c3)ncc2F)cc1Cl [compound 808]
– | – | ≤ 20 | > 20 | COc1cc(Nc2ncc(F)c(Nc3ccc(OC)c(Cl)c3)n2)cc(C(F)(F)F)c1 [compound 810]
– | – | ≤ 20 | > 20 | COc1ccc(Nc2nc(Nc3cc(C)c(C)c(C)c3)ncc2F)cc1Cl [compound 811]
– | – | ≤ 20 | ≤ 20 | COc1cc(Nc2ncc(F)c(Nc3cccc(OC(F)(F)F)c3)n2)cc(OC)c1 [compound 812]
– | – | > 20 | > 20 | Cc1cc(C)cc(Nc2ncc(F)c(Nc3cccc(OC(F)(F)F)c3)n2)c1 [compound 813]
– | – | ≤ 20 | ≤ 20 | COc1cc(Nc2ncc(F)c(Nc3cc(C)cc(C)c3)n2)cc(OC)c1 [compound 814]
– | – | ≤ 20 | ≤ 20 | COc1cc(Nc2ncc(F)c(Nc3cc(C)cc(C)c3)n2)cc(C(F)(F)F)c1 [compound 815]
– | – | ≤ 20 | > 20 | Cc1cc(C)cc(Nc2nc(Nc3cc(C)cc(C(F)(F)F)c3)ncc2F)c1 [compound 816]
– | – | ≤ 20 | ≤ 20 | COc1cc(Nc2nc(Nc3cc(C)cc(C)c3)ncc2F)cc(C(F)(F)F)c1 [compound 817]
– | – | ≤ 20 | ≤ 20 | COc1cc(Nc2ncc(F)c(Nc3cc(OC)cc(C(F)(F)F)c3)n2)cc(OC)c1 [compound 818]
